The results in this text go back to US6903108B2, “Fungicidal mixtures based on amide compounds and pyridine derivatives” (BASF Aktiengesellschaft, priority 1997, dated 2005).

In experiment [1] the test system is Botrytis cinerea. Briefly: Activity against Botrytis cinerea on bell pepper leaves (Use Example 1). The following applies: in vivo.
Experiment [2] relates to Botrytis cinerea. The experiment in a line: Activity against Botrytis cinerea on bell peppers, green fruit disks (Use Example 2). The format is in vivo.

Several values for one entry are separate records, joined by “and”; a condition that tells them apart may be missing. Identical values can stand only once.

On to `O=C(Nc1ccccc1-c1ccc(Cl)cc1)c1cccnc1Cl` [Compound I.2], for which, in the experiment on Botrytis cinerea [1], the “Efficacy in % of the untreated control” value is 67% and 44%.

For `O=C1c2ccccc2C(=O)N1SC(Cl)(Cl)Cl` [Compound VII, folpet], the “Efficacy in % of the untreated control” value with Botrytis cinerea [1] and with Botrytis cinerea [2] (in vivo) was 0% in each case.

Take `CN(C)S(=O)(=O)N(SC(F)(Cl)Cl)c1ccccc1` [Compound IXa, dichlofluanid]: the “Efficacy in % of the untreated control” value in the experiment on Botrytis cinerea [1] came to 0%.

`N#Cc1c[nH]cc1-c1cccc2c1OC(F)(F)O2` [Compound IV, fludioxinil]: the “Efficacy in % of the untreated control” value in the experiment on Botrytis cinerea [2] (in vivo) is reported as 0%.

Take `O=[N+]([O-])c1cc(C(F)(F)F)c(Cl)c([N+](=O)[O-])c1Nc1ncc(C(F)(F)F)cc1Cl` [Compound VIII, fluazinam]: the “Efficacy in % of the untreated control” value with Botrytis cinerea [2] (16 ppm active ingredient in the spray liquor, green bell pepper fruit disks, 4 days at 18° C.) is listed as 0%; with Botrytis cinerea [2] (31 ppm active ingredient in the spray liquor, green bell pepper fruit disks, 4 days at 18° C.), 0%.

Turning to `O=C(Nc1ccccc1-c1ccc(F)cc1)c1cccnc1Cl` [Compound I.1], the “Efficacy in % of the untreated control” value in the experiment on Botrytis cinerea [2] (in vivo) is 0%.
